Reference: ChEMBL document CHEMBL3885861, “Open TG-GATES”

Species on record: Rattus norvegicus
Assay: Open TG-GATES - Regimen: Daily Repeat
Format: toxicity, organism-based, Sprague-Dawley
Parameters: regimen Daily Repeat, gender Male, age 6 weeks
Settings: in vivo, po, 6 mg/kg, […], route gavage, dose level Low; for KIDNEY_L / KIDNEY_R / KIDNEY_TOTAL: tissue Kidney; for LIVER: tissue Liver; for A/G / ALP / ALT / AST / BUN / CRE / Ca / Cl / DBIL / GLC / IP / K / LDH / Na / PL / RALB / TBIL / TC / TG / TP / gamma-GTP: tissue Plasma

CC(C)NNC(=O)c1ccncc1 [IPRONIAZID]
Lym (tissue Blood, time 28 day): 78.8% | MCH (tissue Blood, time 28 day): 20 pg | MCHC (tissue Blood, time 28 day): 35.1% | MCV (tissue Blood, time 28 day): 56.8 fL | Mono (tissue Blood, time 28 day): 2% | Neu (tissue Blood, time 28 day): 17% | PT (tissue Blood, time 28 day): 15.8 s | Plat (tissue Blood, time 28 day): 111.4 x10_4/uL | RBC (tissue Blood, time 28 day): 687.6 x10_4/ul | Ret (tissue Blood, time 28 day): 4.7% | WBC (tissue Blood, time 28 day): 109.2 x10_2/uL | KIDNEY_L (time 7 day): 1 g | KIDNEY_R (time 7 day): 1 g | KIDNEY_TOTAL (time 7 day): 2.1 g | KIDNEY_L (time 14 day): 1.1 g | KIDNEY_R (time 14 day): 1.1 g | KIDNEY_TOTAL (time 14 day): 2.2 g | KIDNEY_L (time 28 day): 1.3 g | KIDNEY_R (time 28 day): 1.3 g | KIDNEY_TOTAL (time 28 day): 2.6 g | LIVER (time 7 day): 10.7 g | LIVER (time 14 day): 11.9 g | LIVER (time 28 day): 14.7 g | A/G (time 7 day): 1.2 | ALP (time 7 day): 1548 IU/L | ALT (time 7 day): 39.8 IU/L | AST (time 7 day): 72.8 IU/L | BUN (time 7 day): 18 mg/dL | CRE (time 7 day): 0.2 mg/dL | Ca (time 7 day): 10.6 mg/dL | Cl (time 7 day): 107.6 meq/L | DBIL (time 7 day): 0 mg/dL | GLC (time 7 day): 189.4 mg/dL | IP (time 7 day): 6.5 mg/dL | K (time 7 day): 4.3 meq/L | LDH (time 7 day): 234.6 IU/L | Na (time 7 day): 141 meq/L | PL (time 7 day): 153.2 mg/dL | RALB (time 7 day): 3.1 g/dL | TBIL (time 7 day): 0.002 mg/dL | TC (time 7 day): 76.8 mg/dL | TG (time 7 day): 125.8 mg/dL | TP (time 7 day): 5.6 g/dL | gamma-GTP (time 7 day): 1.4 IU/L | A/G (time 14 day): 1.1 | ALP (time 14 day): 1195.8 IU/L | ALT (time 14 day): 41 IU/L | AST (time 14 day): 69 IU/L | BUN (time 14 day): 18 mg/dL | CRE (time 14 day): 0.2 mg/dL | Ca (time 14 day): 10.5 mg/dL | Cl (time 14 day): 107.4 meq/L | DBIL (time 14 day): 0 mg/dL | GLC (time 14 day): 180 mg/dL | IP (time 14 day): 6.5 mg/dL | K (time 14 day): 4.3 meq/L | LDH (time 14 day): 160.8 IU/L | Na (time 14 day): 141.2 meq/L | PL (time 14 day): 161 mg/dL | RALB (time 14 day): 3 g/dL | TBIL (time 14 day): 0.004 mg/dL | TC (time 14 day): 80.6 mg/dL | TG (time 14 day): 148 mg/dL | TP (time 14 day): 5.7 g/dL | gamma-GTP (time 14 day): 2.2 IU/L | A/G (time 28 day): 1.1 | ALP (time 28 day): 1033.6 IU/L | ALT (time 28 day): 42.6 IU/L | AST (time 28 day): 71.8 IU/L | BUN (time 28 day): 18 mg/dL | CRE (time 28 day): 0.2 mg/dL | Ca (time 28 day): 10.6 mg/dL | Cl (time 28 day): 106.6 meq/L | DBIL (time 28 day): 0 mg/dL | GLC (time 28 day): 191 mg/dL | IP (time 28 day): 6.2 mg/dL | K (time 28 day): 4.3 meq/L | LDH (time 28 day): 167.4 IU/L | Na (time 28 day): 142 meq/L | PL (time 28 day): 151.6 mg/dL | RALB (time 28 day): 3.2 g/dL | TBIL (time 28 day): 0.02 mg/dL | TC (time 28 day): 77.6 mg/dL | TG (time 28 day): 135.6 mg/dL | TP (time 28 day): 6 g/dL | gamma-GTP (time 28 day): 2 IU/L
